What was measured:
[1] = biological target: T1, hNaV1.6 channel (Homo sapiens, UniProt Q9UQD0); assay: Automated patch-clamp block of hNaV1.6 peak Na+ current in HEK-293 cells; format: cell-based; details: for hNaV1.6 IC50 versus WT: ratio of analogue mean IC50 to HwTx-IV WT mean IC50 on hNaV1.6; for IC50: HEK-293 cells stably expressing hNaV1.6, SyncroPatch 384 PE whole-cell, holding -100 mV, 0 mV test pulse 50 ms every 5 s, room temperature 18-22°C, 0.3% BSA, steady state or end of 15-min application, mean, S.E.M. and n cells
T1 construct: expressed in transfected cells
Experimental: (§1) CHO cells stably expressing the hNaV1.7 channel subtype were cultured in Dulbecco’s Modified Eagle’s Medium F-12 (DMEM/F12) supplemented with 10% fetal bovine serum, 2 mM glutamine, 200 μg/ml hygromycine B, 10 U/ml penicillin and 10 μg/ml streptomycin (Gibco, Grand Island, NY). HEK-293 cells stably expressing the hNaV1.6 channel subtype were cultured in Dulbecco’s Modified Eagle’s Medium (DMEM) supplemented with 10% fetal calf serum, 1 mM pyruvic acid, 4.5 g/L glucose, 2 mM glutamine, 800 μg/ml G418, 10 U/ml penicillin and 10 μg/ml streptomycin (Gibco, Grand Island, NY). All cell lines were incubated at 37°C in a 5% CO2 atmosphere. For electrophysiological recordings, cells were detached with trypsin, and floating single cells were diluted (∼300,000 cells/ml) in an extracellular solution containing (in mM): 140 NaCl, 4 KCl, 2 CaCl2, 1 MgCl2, 5 glucose and 10 HEPES (pH 7.4, osmolarity 298 mOsm), that was used throughout the experiments.
(§2) HwTx-IV analogues were investigated on CHO cells expressing hNav1.7 channel and HEK-293 cells expressing hNaV1.6 channel using the automated patch-clamp system from Nanion (SyncroPatch 384 PE; München, Germany). Chips with single-hole and high-resistance (∼6–7 MΩ) were used for both cell lines. Voltage pulses and whole-cell recordings were achieved using the PatchControl384 v1.5.2 software (Nanion) and the Biomek v1.0 interface (Beckman Coulter). Prior to recordings, dissociated cells were shaken at 200 RPM in a cell hotel reservoir at 10°C. After cell catching, sealing, whole-cell formation, liquid application, recording, and data acquisition were all performed sequentially and automatically. The intracellular solution contained (in mM): 110 CsF, 10 CsCl, 10 NaCl, 1 MgCl2, 1 CaCl2, 10 EGTA and 10 HEPES (pH 7.2, osmolarity 280 mOsm), and the extracellular solution was as described above. Whole-cell experiments were done at −100 mV holding potential and at room temperature (18–22°C), while currents triggered at either −10 or 0 mV test potential were sampled at 20 kHz. Stimulation frequency was set at 0.2 Hz. Each HwTx-IV analogue was prepared at various concentrations in the extracellular solution, itself supplemented with 0.3% of bovine serum albumin (BSA), also added in the control solution. The peptides were distributed in 384-well microplates according to the number of compounds to be tested (generally four), the concentration range defined from the IC50 of wild-type HwTx-IV, and the number of cells desired for each experimental condition. Compound solutions were diluted 3 times in the patch-clamp recording well by adding 30–60 μl external solution, to reach the final reported concentration and the test volume of 90 μl. For establishing dose-response curves, the compounds were tested at a test potential of either −10 or 0 mV for 50 ms with a pulse every 5 s. Percentages of current inhibition were measured at steady-state of blockage or at the end of a 15-min application time.

[2] = biological target: T2, hNaV1.7 channel (Homo sapiens, UniProt Q15858); assay: Automated patch-clamp block of hNaV1.7 peak Na+ current in CHO cells; format: cell-based; details: for hNaV1.7/hNaV1.6 selectivity ratio: inverse ratio of the mean IC50 values on hNaV1.7 (CHO) and hNaV1.6 (HEK-293) of Table 1; for hNaV1.7 IC50 versus WT: ratio of analogue mean IC50 to HwTx-IV WT mean IC50 on hNaV1.7; for IC50: CHO cells stably expressing hNaV1.7, SyncroPatch 384 PE whole-cell, holding -100 mV, -10 mV test pulse 50 ms every 5 s, room temperature 18-22°C, 0.3% BSA, steady state or end of 15-min application, mean, S.E.M. and n cells
T2 construct: expressed in transfected cells
Experimental: as §1
as §2, with “The peptides were distributed in 384-well microplates according to the number of compounds to be tested (generally four), the concentration range defined from the IC50 of wild-type HwTx-IV, and the number of cells desired for each experimental condition.” left out

T1 sequence (Q9UQD0 whole entry): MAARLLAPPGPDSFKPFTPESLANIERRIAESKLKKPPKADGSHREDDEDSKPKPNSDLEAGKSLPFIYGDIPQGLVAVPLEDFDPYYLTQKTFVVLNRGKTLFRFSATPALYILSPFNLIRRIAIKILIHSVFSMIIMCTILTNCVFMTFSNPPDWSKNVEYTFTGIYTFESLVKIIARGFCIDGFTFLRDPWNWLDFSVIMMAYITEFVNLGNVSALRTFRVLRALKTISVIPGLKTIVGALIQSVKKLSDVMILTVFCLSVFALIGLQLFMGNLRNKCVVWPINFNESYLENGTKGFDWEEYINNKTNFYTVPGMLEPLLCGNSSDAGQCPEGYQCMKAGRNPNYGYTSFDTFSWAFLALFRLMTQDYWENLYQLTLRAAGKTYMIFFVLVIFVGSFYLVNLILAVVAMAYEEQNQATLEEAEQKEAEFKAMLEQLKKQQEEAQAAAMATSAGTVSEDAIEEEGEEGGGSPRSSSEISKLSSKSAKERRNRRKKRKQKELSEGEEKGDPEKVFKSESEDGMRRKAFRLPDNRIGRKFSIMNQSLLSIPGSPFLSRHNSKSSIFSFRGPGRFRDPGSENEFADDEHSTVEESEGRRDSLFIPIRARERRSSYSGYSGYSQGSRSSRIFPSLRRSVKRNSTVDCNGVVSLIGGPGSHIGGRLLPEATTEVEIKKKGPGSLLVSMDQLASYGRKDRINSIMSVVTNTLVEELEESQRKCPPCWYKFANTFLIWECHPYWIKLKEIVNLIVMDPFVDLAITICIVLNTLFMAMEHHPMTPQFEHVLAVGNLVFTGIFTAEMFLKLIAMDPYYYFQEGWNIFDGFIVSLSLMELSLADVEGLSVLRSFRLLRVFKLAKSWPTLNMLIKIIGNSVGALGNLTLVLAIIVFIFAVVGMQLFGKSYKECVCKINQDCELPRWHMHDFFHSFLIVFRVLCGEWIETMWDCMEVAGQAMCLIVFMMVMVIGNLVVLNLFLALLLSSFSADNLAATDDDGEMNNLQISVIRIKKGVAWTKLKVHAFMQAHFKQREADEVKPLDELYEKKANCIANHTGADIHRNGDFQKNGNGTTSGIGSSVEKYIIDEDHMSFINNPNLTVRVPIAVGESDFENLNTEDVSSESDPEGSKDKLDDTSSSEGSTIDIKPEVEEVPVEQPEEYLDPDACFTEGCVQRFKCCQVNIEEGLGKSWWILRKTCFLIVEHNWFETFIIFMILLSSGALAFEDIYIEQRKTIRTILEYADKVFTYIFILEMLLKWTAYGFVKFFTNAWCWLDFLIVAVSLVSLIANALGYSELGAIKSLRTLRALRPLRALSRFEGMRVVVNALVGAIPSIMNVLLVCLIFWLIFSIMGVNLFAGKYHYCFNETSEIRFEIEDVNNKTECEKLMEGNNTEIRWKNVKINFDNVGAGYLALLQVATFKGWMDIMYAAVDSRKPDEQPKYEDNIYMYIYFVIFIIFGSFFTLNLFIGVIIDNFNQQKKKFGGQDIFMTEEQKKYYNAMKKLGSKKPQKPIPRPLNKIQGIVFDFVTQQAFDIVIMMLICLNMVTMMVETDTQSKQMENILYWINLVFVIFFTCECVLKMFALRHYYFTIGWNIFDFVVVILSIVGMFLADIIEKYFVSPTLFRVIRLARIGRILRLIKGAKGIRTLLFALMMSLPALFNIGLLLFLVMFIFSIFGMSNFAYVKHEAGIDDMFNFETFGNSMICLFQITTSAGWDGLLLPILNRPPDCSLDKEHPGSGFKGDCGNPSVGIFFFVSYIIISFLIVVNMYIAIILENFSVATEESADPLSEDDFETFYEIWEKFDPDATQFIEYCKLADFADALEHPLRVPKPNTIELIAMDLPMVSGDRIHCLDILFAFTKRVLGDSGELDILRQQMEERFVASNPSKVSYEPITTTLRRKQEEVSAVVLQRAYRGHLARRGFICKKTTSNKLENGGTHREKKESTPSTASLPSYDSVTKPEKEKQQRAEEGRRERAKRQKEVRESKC
T2 sequence (Q15858 whole entry): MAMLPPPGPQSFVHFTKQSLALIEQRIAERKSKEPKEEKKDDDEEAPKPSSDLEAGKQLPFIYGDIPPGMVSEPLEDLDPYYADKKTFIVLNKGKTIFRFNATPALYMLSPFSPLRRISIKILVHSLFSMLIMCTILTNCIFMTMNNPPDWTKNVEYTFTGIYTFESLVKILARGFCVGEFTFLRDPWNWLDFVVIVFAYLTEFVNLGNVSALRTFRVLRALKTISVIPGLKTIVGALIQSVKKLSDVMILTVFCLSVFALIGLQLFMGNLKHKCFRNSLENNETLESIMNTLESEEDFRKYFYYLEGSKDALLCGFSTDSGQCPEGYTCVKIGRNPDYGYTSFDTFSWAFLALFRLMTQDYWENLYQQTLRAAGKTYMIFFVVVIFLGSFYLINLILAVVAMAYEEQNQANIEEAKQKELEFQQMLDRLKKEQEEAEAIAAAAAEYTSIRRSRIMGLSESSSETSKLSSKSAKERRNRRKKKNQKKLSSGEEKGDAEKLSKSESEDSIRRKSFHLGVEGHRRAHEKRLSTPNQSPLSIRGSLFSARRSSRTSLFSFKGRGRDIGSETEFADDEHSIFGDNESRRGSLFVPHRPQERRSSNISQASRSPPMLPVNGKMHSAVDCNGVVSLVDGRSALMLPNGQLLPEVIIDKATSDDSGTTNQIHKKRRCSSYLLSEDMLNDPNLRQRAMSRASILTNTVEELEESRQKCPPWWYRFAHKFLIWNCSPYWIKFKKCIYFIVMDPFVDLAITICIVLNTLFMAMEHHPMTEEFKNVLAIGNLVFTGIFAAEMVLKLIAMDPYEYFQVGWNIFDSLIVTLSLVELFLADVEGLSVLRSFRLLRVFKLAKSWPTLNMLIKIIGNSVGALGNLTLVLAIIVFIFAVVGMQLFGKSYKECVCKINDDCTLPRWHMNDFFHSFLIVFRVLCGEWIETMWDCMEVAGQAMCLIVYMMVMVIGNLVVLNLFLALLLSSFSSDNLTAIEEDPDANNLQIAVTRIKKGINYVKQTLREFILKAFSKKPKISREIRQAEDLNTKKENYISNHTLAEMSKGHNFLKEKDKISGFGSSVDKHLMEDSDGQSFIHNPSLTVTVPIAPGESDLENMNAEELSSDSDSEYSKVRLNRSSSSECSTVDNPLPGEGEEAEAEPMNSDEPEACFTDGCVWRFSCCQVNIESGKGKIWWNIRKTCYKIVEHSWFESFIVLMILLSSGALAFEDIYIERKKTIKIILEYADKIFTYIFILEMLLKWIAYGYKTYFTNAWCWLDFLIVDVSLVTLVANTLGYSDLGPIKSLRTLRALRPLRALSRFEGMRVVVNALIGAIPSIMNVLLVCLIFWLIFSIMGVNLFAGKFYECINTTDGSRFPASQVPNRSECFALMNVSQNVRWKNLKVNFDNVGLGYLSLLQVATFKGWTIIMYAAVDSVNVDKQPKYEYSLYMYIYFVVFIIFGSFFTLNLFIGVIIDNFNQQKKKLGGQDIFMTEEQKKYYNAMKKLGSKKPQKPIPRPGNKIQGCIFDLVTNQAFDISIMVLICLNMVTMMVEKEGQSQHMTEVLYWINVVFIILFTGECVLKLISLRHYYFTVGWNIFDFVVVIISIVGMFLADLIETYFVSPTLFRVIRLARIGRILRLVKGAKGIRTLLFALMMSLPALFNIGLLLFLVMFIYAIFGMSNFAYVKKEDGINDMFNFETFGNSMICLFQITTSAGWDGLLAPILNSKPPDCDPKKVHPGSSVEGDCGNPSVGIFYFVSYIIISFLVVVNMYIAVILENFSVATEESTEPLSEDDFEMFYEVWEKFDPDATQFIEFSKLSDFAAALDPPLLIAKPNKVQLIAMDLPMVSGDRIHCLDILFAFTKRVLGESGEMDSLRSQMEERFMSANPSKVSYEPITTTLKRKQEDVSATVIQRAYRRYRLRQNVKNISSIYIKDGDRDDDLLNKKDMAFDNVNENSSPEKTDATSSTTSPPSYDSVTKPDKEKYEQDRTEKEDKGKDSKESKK

SMILES | hNaV1.6 IC50 versus WT [1] | hNaV1.6 IC50 versus WT ([1]; listed as HwTx-IV E^4G) | hNaV1.6 IC50 versus WT ([1]; listed as HwTx-IV E^4K) | hNaV1.6 IC50 versus WT ([1]; listed as HwTx-IV E^4R) | hNaV1.7/hNaV1.6 selectivity ratio ([2]; listed as E^4K) | hNaV1.7/hNaV1.6 selectivity ratio ([2]; listed as HwTx-IV E^4K) | hNaV1.7 IC50 versus WT [2] | hNaV1.7 IC50 versus WT ([2]; listed as HwTx-IV E^4G) | hNaV1.7 IC50 versus WT ([2]; listed as HwTx-IV E^4K) | IC50 [1] | IC50 [2] | hNaV1.7/hNaV1.6 selectivity ratio [2]
CC[C@H](C)[C@H](NC(=O)[C@H](CCC(N)=O)NC(=O)[C@H](Cc1ccc(O)cc1)NC(=O)[C@H](CCCCN)NC(=O)[C@@H]1CSSC[C@@H]2NC(=O)[C@H](CCC(N)=O)NC(=O)[C@H](CC(=O)O)NC(=O)[C@H](CC(N)=O)NC(=O)[C@H](CO)NC(=O)[C@@H]3CCCN3C(=O)[C@H](CC(N)=O)NC(=O)[C@@H]3CSSC[C@H](NC(=O)[C@H](C(C)C)NC(=O)[C@H](CC(C)C)NC(=O)[C@H](CCCCN)NC(=O)[C@H](CO)NC(=O)[C@H](CO)NC(=O)[C@H](CCCCN)NC(=O)[C@H](CSSC[C@H](NC(=O)CN)C(=O)N[C@@H](CC(C)C)C(=O)N[C@@H](CCC(=O)O)C(=O)N[C@@H]([C@@H](C)CC)C(=O)N[C@@H](Cc4ccccc4)C(=O)N[C@@H](CCCCN)C(=O)N[C@@H](C)C(=O)N3)NC2=O)C(=O)N[C@@H](CO)C(=O)N[C@@H](CCCNC(=N)N)C(=O)N[C@@H](CCCCN)C(=O)N[C@@H]([C@@H](C)O)C(=O)N[C@@H](CCCNC(=N)N)C(=O)N[C@@H](Cc2c[nH]c3ccccc23)C(=O)N1)C(N)=O [HwTx-IV E^1G] | 0.28 | 0.03 | 0.09 | 0.05 | less than 2 | ~1 | 0.70 | 0.16 | 1.43 |  |  | 
CC[C@H](C)[C@H](NC(=O)[C@H](CCC(N)=O)NC(=O)[C@H](Cc1ccc(O)cc1)NC(=O)[C@H](CCCCN)NC(=O)[C@@H]1CSSC[C@@H]2NC(=O)[C@H](CCC(N)=O)NC(=O)[C@H](CC(=O)O)NC(=O)[C@H](CC(N)=O)NC(=O)[C@H](CO)NC(=O)[C@@H]3CCCN3C(=O)[C@H](CC(N)=O)NC(=O)[C@@H]3CSSC[C@H](NC(=O)[C@H](C(C)C)NC(=O)[C@H](CC(C)C)NC(=O)[C@H](CCCCN)NC(=O)[C@H](CO)NC(=O)[C@H](CO)NC(=O)[C@H](CCCCN)NC(=O)[C@H](CSSC[C@H](NC(=O)[C@@H](N)CCC(=O)O)C(=O)N[C@@H](CC(C)C)C(=O)NCC(=O)N[C@@H]([C@@H](C)CC)C(=O)N[C@@H](Cc4ccccc4)C(=O)N[C@@H](CCCCN)C(=O)N[C@@H](C)C(=O)N3)NC2=O)C(=O)N[C@@H](CO)C(=O)N[C@@H](CCCNC(=N)N)C(=O)N[C@@H](CCCCN)C(=O)N[C@@H]([C@@H](C)O)C(=O)N[C@@H](CCCNC(=N)N)C(=O)N[C@@H](Cc2c[nH]c3ccccc23)C(=O)N1)C(=O)O [HwTx-IV E^4G/CterCOOH] | 0.24 |  |  |  |  |  | 1.51 |  |  | 55.1 nM | 14.9 nM | 
CC[C@H](C)[C@H](NC(=O)[C@H](CCC(N)=O)NC(=O)[C@H](Cc1ccc(O)cc1)NC(=O)[C@H](CCCCN)NC(=O)[C@@H]1CSSC[C@@H]2NC(=O)[C@H](CCC(N)=O)NC(=O)[C@H](CC(=O)O)NC(=O)[C@H](CC(N)=O)NC(=O)[C@H](CO)NC(=O)[C@@H]3CCCN3C(=O)[C@H](CC(N)=O)NC(=O)[C@@H]3CSSC[C@H](NC(=O)[C@H](C(C)C)NC(=O)[C@H](CC(C)C)NC(=O)[C@H](CCCCN)NC(=O)[C@H](CO)NC(=O)[C@H](CO)NC(=O)[C@H](CCCCN)NC(=O)[C@H](CSSC[C@H](NC(=O)[C@@H](N)CCC(=O)O)C(=O)N[C@@H](CC(C)C)C(=O)N[C@@H](CCCCN)C(=O)N[C@@H]([C@@H](C)CC)C(=O)N[C@@H](Cc4ccccc4)C(=O)N[C@@H](CCCCN)C(=O)N[C@@H](C)C(=O)N3)NC2=O)C(=O)N[C@@H](CO)C(=O)N[C@@H](CCCNC(=N)N)C(=O)N[C@@H](CCCCN)C(=O)N[C@@H]([C@@H](C)O)C(=O)N[C@@H](CCCNC(=N)N)C(=O)N[C@@H](Cc2c[nH]c3ccccc23)C(=O)N1)C(=O)O [HwTx-IV E^4K/CterCOOH] | 0.60 |  |  |  |  |  | 1.20 |  |  | 136 nM | 11.9 nM | 
CC[C@H](C)[C@H](NC(=O)[C@H](CCC(N)=O)NC(=O)[C@H](Cc1c[nH]c2ccccc12)NC(=O)[C@H](CCCCN)NC(=O)[C@@H]1CSSC[C@@H]2NC(=O)[C@H](CCC(N)=O)NC(=O)[C@H](CC(=O)O)NC(=O)[C@H](CC(N)=O)NC(=O)[C@H](CO)NC(=O)[C@@H]3CCCN3C(=O)[C@H](CC(N)=O)NC(=O)[C@@H]3CSSC[C@H](NC(=O)[C@H](C(C)C)NC(=O)[C@H](CC(C)C)NC(=O)[C@H](CCCCN)NC(=O)[C@H](CO)NC(=O)[C@H](CO)NC(=O)[C@H](CCCCN)NC(=O)[C@H](CSSC[C@H](NC(=O)[C@@H](N)CCC(=O)O)C(=O)N[C@@H](CC(C)C)C(=O)N[C@@H](CCCCN)C(=O)N[C@@H]([C@@H](C)CC)C(=O)N[C@@H](Cc4ccccc4)C(=O)N[C@@H](CCCCN)C(=O)N[C@@H](C)C(=O)N3)NC2=O)C(=O)N[C@@H](CO)C(=O)N[C@@H](C)C(=O)N[C@@H](CCCCN)C(=O)N[C@@H]([C@@H](C)O)C(=O)N[C@@H](CCCNC(=N)N)C(=O)N[C@@H](Cc2c[nH]c3ccccc23)C(=O)N1)C(N)=O [HwTx-IV E^4K/R ^26A/Y^33W] | 0.38 |  |  |  |  |  | 0.09 |  |  | 86.4 nM | 0.9 nM | above 46

Source: publication PMC8722715 (Frontiers in Cell and Developmental Biology, 2021)
